According to patent US20010053766A1, “Method of treating disorders of the eye” (priority 2000, published 2001):
Ends that are not written are not given here.

What was measured:
[1] = system: outflow pathway cells of perfused porcine eyes; test: Morphological studies of perfused eyes (transmission electron microscopy of outflow pathway); conditions: porcine eyes perfused with peptide, 4 pairs, versus sham controls
Procedure: After completion of RGD perfusion experiments, 4 pairs of the experimental and the control eyes were fixed for morphological examination. The fixation was performed by perfusing overnight at constant pressure of 15 mmHg with perfusion buffer containing 2.5% gluteraldehyde and 2.0% formaldehyde. Small cross-section wedges of the outflow pathway area of fixed eyes were prepared for transmission electron microscopy as described previously (Epstein et al, Invest. Ophthalmol Vis. Sci. 40:74-8116 (1999)). The specimens were fixed in 1% osmium tetraoxide in 0.1 M sodium cacodylate buffer and stained with 1% uranyl acetate for 1 hr in dark. Further, the tissues were dehydrated, infiltrated and embedded on Spurr embedding medium (Ted Pella, Inc., Redding, Calif.). Ultrathin sections (70 nm) were obtained by microtomy and stained with potassium permanganate and Sato's lead sequentially before examined with a transmission electron microscope (1200 EX; JEOL, Peabody, Mass.).

[2] = system: New Zealand White rabbits; test: RGD-peptide injection in the anterior chamber of rabbit eye; format: in vivo; conditions: 500 μg in PBS injected into the anterior chamber of one eye, live rabbits n=3
Procedure: New Zealand White rabbits of approximately five pounds were used for this experiment. Baseline Intraocular Pressure (IOP) data was obtained using a MENTOR tonopen prior to anaesthesia. The rabbits were anaesthetized with IM KETAMINE and topical proparacaine. The GRGDTP peptide (500 μg) was dissolved in phosphate buffered saline (PBS) and injected into the anterior chamber of only one eye. Further intraocular pressure mesurements were performed with a tonopen and data recorded in a time dependent manner, as shown in FIG. 8.
The results are expressed as percent change in IOP as compared to basal values obtained before injection of the RGD peptide. The basal value was taken as IOP (0%) in both eyes and the contralateral eye was used as control.

[3] = system: Human Schlemm's canal (SC) cell monolayers; test: SC cell monolayer permeability barrier function (HRP diffusion on Transwells); format: cell-based; conditions: 200 μM peptide, 1 hr, complete medium, n=7; mean ± S.E.
Procedure: (§1) Human cadaver eye tissues were obtained from the National Disease Research Interchange (NDRI; Philadelphia, Pa.), and the SC cells were isolated following the techniques previously described (Stammer et al, Invest. Ophthalmol. Vis. Sci. 39:1804 (1998)). The cells were grown in Dulbecco's modified Eagle's medium with 10% fetal bovine serum, 2 mM L-glutamine, 100 U/ml penicillin G and 100 μg/ml streptomycine sulfate (all from GibcoBRL, Gaithersburg, Md.). The primary cultures of SC cells were used between the passages of three to six, throughout the experiments.
To correlate the specific effects of the RGD peptide compared to a control RGE peptide, the standard device was used to measure the monolayer permeability barrier function on Transwells cell culture chambers (fibronectin-coated polycarbonate filters, […] pore size, Costar Corp.) as described by Lampugnani et al (J. Cell Biol. 112: 479-490 (1991)). The diffusion of horseradish peroxidase (HRP) through SC cell monolayer was determined with and without RGD hexapeptide GRGDTP (Sigma, St. Louis, Mo.) or known control RGE hexapeptide GRGESP (GibcoBRL, Gaithersberg, Md.). […] Results were expressed as percent change in enzyme activity as compared to untreated controls. Values were obtained from three independent experiments and expressed as means±S.E. A paired t-test analysis was also performed with respect to untreated controls.

[4] = system: Human Schlemm's canal (SC) cell monolayers; test: SC cells monolayer integrity assay in vitro (phase contrast, F-actin and focal adhesion staining); format: cell-based; conditions: complete medium, 37 C
Procedure: as §1
To evaluate the effect of RGD peptide on monolayer integrity, the SC cells were seeded on fibronectin-coated coverslips and grown for 10 days in complete medium. Before the experiment, the gaps in the confluent cells layer on coverslips were examined thoroughly. Further, the culture media was replaced with RGD peptide or control RGE peptide (200 μM)-containing complete medium and incubated at 37° C. in CO2 incubator. The changes in morphology (cell retraction, cell-cell attachments) were followed for 3 hrs. The induced morphological changes were monitored by phase contrast microscopy (Zeiss IM 35). For clear illustration of the specific and non-toxic effects of RGD peptide, the changes in SC cells monolayer integrity and reversibility were followed after treatment at higher concentration (1.0 mM) as compared to control RGE peptide. The coverslips were fixed with 3.7% formaldehyde and stained for F-actin and focal adhesions as described earlier (Lampugnani et al, J. Cell Biol. 112: 479-490 (1991)). The RGD-containing medium was removed with complete culture medium after three times washing and incubation was continued. Further, the reversibility of the gaps formation was followed.

GRGDTP [GRGDTP]
cellular toxicity in outflow pathway of perfused eyes [1]: did not show signs of cellular toxicity | cellular toxicity in outflow pathway of perfused eyes ([1]; listed as RGD): no sign of cellular toxicity | evidence of anterior chamber inflammation and wound leakage [2]: no clinically significant changes

GRGESP
increase in SC cells monolayer permeability (HRP diffusion) as compared to untreated controls [3]: 12%±3 | morphological effect on SC cell monolayer integrity ([4]; 200 μM peptide, up to 3 hrs): compact cellular morphology | morphological effect on SC cell monolayer integrity ([4]; 1.0 mM peptide, 3 hrs): no such effect was noted | morphological effect on SC cell monolayer integrity ([4]; 1.0 mM peptide, 3 hrs, listed as RGE peptide): no detectable effects
